1 compound from ChEMBL document CHEMBL1150749, “Novel Cleistanthane Diterpenoids from Pogostemon auricularis” (1988) can be followed below.

Common to all, as to type: functional
Conditions in all cases: Cavia porcellus

The subject of experiment [1] is Ileum. Nature of the experiment: Inhibition of spasmogen response in guinea pig ileum at 2.5 ug/mL.
Experiment [2] has as its system Ileum. Nature of the experiment: Inhibition of spasmogen response in guinea pig ileum at 10 ug/mL.
Experiment [3] concerns Ileum. Nature of the experiment: Inhibition of spasmogen response in guinea pig ileum at 5 ug/mL.

`C=C[C@H]1C(=C)CC[C@H]2[C@H]1[C@@H](OC(C)=O)C[C@@H]1[C@]2(C)CCC[C@@]1(C)C(=O)O`: testing at 2.5 µg/mL in the experiment with Ileum [1] gave an inhibition of 10%. This compound registered an inhibition at 10 µg/mL in the experiment with Ileum [2] of 69%. Further, the inhibition at 5 µg/mL in the experiment with Ileum [3] is 19%.

By inhibition is commonly meant the change of the read-out against control, counted positive when it falls.
